Experimental data from PubChem BioAssay AID1671294.

Biological target: Homeodomain-interacting protein kinase 3 (Homo sapiens) (UniProt Q9H422)
Test: HIPK3 kinase inhibitors, dose response, biochemical, Z'-LYTE, FRET, protease-coupled, direct format (AID 1671294)
Details: Z'-LYTE FRET kinase activity, recombinant HIPK3

Chain of Homeodomain-interacting protein kinase 3 (Homo sapiens) (Q9H422 whole entry, looked up): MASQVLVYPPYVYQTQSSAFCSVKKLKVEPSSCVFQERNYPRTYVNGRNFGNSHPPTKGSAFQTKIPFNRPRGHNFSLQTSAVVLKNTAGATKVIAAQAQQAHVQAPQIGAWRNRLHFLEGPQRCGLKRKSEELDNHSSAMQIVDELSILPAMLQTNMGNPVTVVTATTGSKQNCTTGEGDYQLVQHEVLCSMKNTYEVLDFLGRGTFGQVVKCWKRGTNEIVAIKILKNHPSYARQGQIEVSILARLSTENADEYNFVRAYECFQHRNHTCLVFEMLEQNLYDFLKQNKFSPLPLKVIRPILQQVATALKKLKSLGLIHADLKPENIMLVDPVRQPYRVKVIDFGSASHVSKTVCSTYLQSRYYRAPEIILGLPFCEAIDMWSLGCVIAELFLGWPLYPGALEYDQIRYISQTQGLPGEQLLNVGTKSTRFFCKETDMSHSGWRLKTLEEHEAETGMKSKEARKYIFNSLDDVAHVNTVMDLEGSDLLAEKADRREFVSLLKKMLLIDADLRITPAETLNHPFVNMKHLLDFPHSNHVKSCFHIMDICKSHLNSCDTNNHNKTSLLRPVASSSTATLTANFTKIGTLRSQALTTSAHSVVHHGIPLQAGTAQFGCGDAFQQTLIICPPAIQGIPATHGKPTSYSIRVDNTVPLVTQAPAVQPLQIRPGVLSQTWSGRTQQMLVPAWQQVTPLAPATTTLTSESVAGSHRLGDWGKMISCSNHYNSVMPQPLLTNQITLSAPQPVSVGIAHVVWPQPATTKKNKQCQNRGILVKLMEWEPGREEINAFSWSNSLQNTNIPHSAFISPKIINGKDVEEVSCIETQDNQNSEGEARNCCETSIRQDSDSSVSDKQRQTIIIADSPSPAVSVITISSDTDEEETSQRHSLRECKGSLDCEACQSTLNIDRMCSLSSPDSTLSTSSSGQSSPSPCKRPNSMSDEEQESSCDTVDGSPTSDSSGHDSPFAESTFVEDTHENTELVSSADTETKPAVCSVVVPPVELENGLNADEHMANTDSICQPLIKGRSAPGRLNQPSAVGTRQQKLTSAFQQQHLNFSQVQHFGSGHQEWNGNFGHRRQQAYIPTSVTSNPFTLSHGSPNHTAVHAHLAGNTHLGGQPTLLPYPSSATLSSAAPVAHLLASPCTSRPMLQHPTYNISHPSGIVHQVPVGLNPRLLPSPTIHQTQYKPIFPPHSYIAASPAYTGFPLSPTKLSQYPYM

Brc1c(Br)c(Br)c2n[nH]nc2c1Br
IC50: 5.1 µM
